Source: PubChem BioAssay (NCI)
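Dose response: 5 concentrations. Exposure: 48 h. Format: 96-well plates. Endpoint: linear interpolation; highest concentration if not reached. GI50 = concentration required for 50% inhibition of growth. TGI: total growth inhibition.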

Key:
Experiment in all cases: NCI tumour cell line growth inhibition, 48 h
SNB-75 CNS = test system: SNB-75 CNS
CCRF-CEM leukemia = test system: CCRF-CEM leukemia
K-562 leukemia = test system: K-562 leukemia
A549 NSCLC = test system: A549 NSCLC
ACHN renal = test system: ACHN renal
SK-OV-3 ovarian = test system: SK-OV-3 ovarian
HOP-62 NSCLC = test system: HOP-62 NSCLC
MALME-3M melanoma = test system: MALME-3M melanoma
SK-MEL-5 melanoma = test system: SK-MEL-5 melanoma
SNB-19 CNS = test system: SNB-19 CNS
SK-MEL-2 melanoma = test system: SK-MEL-2 melanoma
UO-31 renal = test system: UO-31 renal
MDA-MB-435 = test system: MDA-MB-435
HS 578T breast = test system: HS 578T breast
M14 melanoma = test system: M14 melanoma
A498 renal = test system: A498 renal
PC-3 prostate = test system: PC-3 prostate
NCI/ADR-RES ovarian = test system: NCI/ADR-RES ovarian
HCT-15 colon = test system: HCT-15 colon
NCI-H226 lung = test system: NCI-H226 lung
RPMI-8226 leukemia = test system: RPMI-8226 leukemia
T-47D breast = test system: T-47D breast
UACC-257 melanoma = test system: UACC-257 melanoma
NCI-H460 lung = test system: NCI-H460 lung
MDA-MB-231 breast = test system: MDA-MB-231 breast
COLO 205 colon = test system: COLO 205 colon
786-0 renal = test system: 786-0 renal
BT-549 breast = test system: BT-549 breast
HL-60(TB) leukemia = test system: HL-60(TB) leukemia

SMILES: O=C(Nc1cccc(-c2cccc(F)c2)c1)C1CCN(Cc2cccc3cccnc23)CC1
- GI50 (SNB-75 CNS): 2.4 µM
- TGI (SNB-75 CNS): 11.7 µM
- GI50 (CCRF-CEM leukemia): 2.67 µM
- TGI (CCRF-CEM leukemia): 11.2 µM
- GI50 (K-562 leukemia): 1.52 µM
- TGI (K-562 leukemia): 3.87 µM
- GI50 (A549 NSCLC): 3.47 µM
- TGI (A549 NSCLC): 13 µM
- GI50 (ACHN renal): 2.28 µM
- TGI (ACHN renal): 5.67 µM
- GI50 (SK-OV-3 ovarian): 4.67 µM
- TGI (SK-OV-3 ovarian): 16.9 µM
- GI50 (HOP-62 NSCLC): 3.78 µM
- TGI (HOP-62 NSCLC): 15.7 µM
- GI50 (MALME-3M melanoma): 1.65 µM
- TGI (MALME-3M melanoma): 3.28 µM
- GI50 (SK-MEL-5 melanoma): 1.64 µM
- TGI (SK-MEL-5 melanoma): 3.06 µM
- GI50 (SNB-19 CNS): 2 µM
- TGI (SNB-19 CNS): 4.83 µM
- GI50 (SK-MEL-2 melanoma): 2.03 µM
- TGI (SK-MEL-2 melanoma): 4.29 µM
- GI50 (UO-31 renal): 1.73 µM
- TGI (UO-31 renal): 4.11 µM
- GI50 (MDA-MB-435): 1.69 µM
- TGI (MDA-MB-435): 3.19 µM
- GI50 (HS 578T breast): 1.91 µM
- TGI (HS 578T breast): 4.55 µM
- GI50 (M14 melanoma): 1.75 µM
- TGI (M14 melanoma): 3.3 µM
- GI50 (A498 renal): 2.06 µM
- TGI (A498 renal): 7.09 µM
- GI50 (PC-3 prostate): 2.21 µM
- TGI (PC-3 prostate): 7.09 µM
- GI50 (NCI/ADR-RES ovarian): 2.76 µM
- TGI (NCI/ADR-RES ovarian): 10.2 µM
- GI50 (HCT-15 colon): 1.79 µM
- TGI (HCT-15 colon): 5.16 µM
- GI50 (NCI-H226 lung): 3.15 µM
- TGI (NCI-H226 lung): 17.2 µM
- GI50 (RPMI-8226 leukemia): 1.95 µM
- TGI (RPMI-8226 leukemia): 4.49 µM
- GI50 (T-47D breast): 2 µM
- TGI (T-47D breast): 5.83 µM
- GI50 (UACC-257 melanoma): 1.83 µM
- TGI (UACC-257 melanoma): 3.75 µM
- GI50 (NCI-H460 lung): 1.92 µM
- TGI (NCI-H460 lung): 3.77 µM
- GI50 (MDA-MB-231 breast): 1.9 µM
- TGI (MDA-MB-231 breast): 3.99 µM
- GI50 (COLO 205 colon): 1.62 µM
- TGI (COLO 205 colon): 3.29 µM
- GI50 (786-0 renal): 1.58 µM
- TGI (786-0 renal): 3.02 µM
- GI50 (BT-549 breast): 1.79 µM
- TGI (BT-549 breast): 3.3 µM
- GI50 (HL-60(TB) leukemia): 1.94 µM
